Measurements from patent US10781420B2, “Method for producing cerebellar progenitor tissue” (RIKEN, priority 2014, dated 2020).

Tests used:
Assay type in all cases: cell-based
[1] = system: Human pluripotent stem cell aggregates; test: Formation of rhombic lip and 3 layer structure of cerebellar plate by addition of SDF1
Procedure: Human pluripotent stem cell aggregates were cultured according to the method of Example 6. On and after day 21, the cells were cultured in a neural culture medium (Neurobasal/GlutaMaxI/N2). On day 28, the total amount of the medium was exchanged with the same medium, and SDF1 was added at a final concentration of 300 ng/ml. On day 35, differentiation of the tissue was analyzed by the immunofluorescence method.

[2] = system: Purkinje cells induced from human pluripotent stem cell aggregates; test: Patch clamp analysis of Purkinje cells induced from human pluripotent stem cells; settings: AMPA receptor inhibitor
Procedure: Mature Purkinje cells were differentiated from human pluripotent stem cell aggregates according to the method of Example 3. Using the Patch clamp technique, the electrophysiological reaction thereof was analyzed.

[3] = system: Human pluripotent stem cell aggregates; test: Formation of cerebellar plate tissue having dorsal-ventral axis pattern by addition of FGF19
Procedure: Human pluripotent stem cell aggregates were cultured according to the methods of Examples 1 and 2. […] The cells were cultured in a neural culture medium (Neurobasal/GlutaMaxI/N2) on and after day 21. On day 28, the total amount of the medium was exchanged with the same medium, and on day 35, tissue differentiation was analyzed by the immunofluorescence method.

[4] = system: Human pluripotent stem cell aggregates; test: Self-formation of cerebellar plate tissue (Kirrel2 positive neuroepithelium) from human pluripotent stem cell aggregates
Procedure: The was aggregates were transferred to a low-cell-adhesion 10 cm dish on and after day 21, and cultured in a neural culture medium (Neurobasal/GlutaMaxI/N2, all Life Technologies). On day 28 of culturing, the total amount of the medium was exchanged with the same neural culture medium, and differentiation of the tissue was analyzed by the immunofluorescence method on day 35 of culturing.
Separated Kirrel2 positive cells, and cerebellar granule cell progenitors prepared from the upper rhombic lip of embryonic day 14 mouse were dispersed into single cells by cell dispersion enzyme (TrypLE, Life Technologies), and cocultured on a cover glass coated with poly D-lysine/laminin in DMEM/F12/10% FBS medium (5% CO2, 37° C.). In coculture, human pluripotent stem cell-derived Kirrel positive cells (1 vol) relative to mouse-derived cerebellar granule cell progenitors (10 vol) were mixed. After 6-12 hr, DMEM/F12/N2/BSA/Tri-iodothyronine (T3) was added to decrease the FBS concentration to about 0.8%.

Human ES cells (KhES-1) = test: Differentiation of human ES cell aggregates (SFEBq method) into midbrain-hindbrain boundary neural progenitors
Procedure: Human ES cells (KhES-1) subjected to maintenance culturing on MEF by a conventional method were used. To differentiate human ES cells by the serum-free floating culture of embryoid body-like aggregates with quick reaggregation (SFEBq method), human ES cells were enzymatically dispersed to single cells, according to the method of Nakano et al. (Cell Stem Cell, 10(6), 771-785, 2012), and reaggregated using a low-cell-adhesive V-bottom 96 well plate (SUMITOMO BAKELITE). 6,000 cells were seeded per well, and cultured in, as a differentiation medium, CDM medium [chemical synthesis medium without a growth factor (growth-factor-free Chemically Defined Medium; gfCDM; Wataya et al., Proc. Natl. Acad. Sci. USA, 105, 11796-11801, 2008) supplemented with insulin (7 μg/ml) and apo-transferrin (15 μg/ml)] under 5% CO2 at 37° C.
The seeding day is taken as day 0 of differentiation culturing. […] […] On day 7, ⅓ of the medium was exchanged with a differentiation medium free of Y-27632, SB431542 and Fgf2. On day 14 of culturing, the medium was completely substituted by a differentiation medium free of Y-27632, SB431542 and FGF2. The cell aggregates were fixed and sliced, and tissue differentiation was analyzed by the immunofluorescence method and quantitative PCR method.

[5] = system: Human pluripotent stem cell aggregates; test: Formation of rhombic lip in cerebellar plate tissue by addition of GDF7
Procedure: Human pluripotent stem cell aggregates were cultured according to the method of Example 6. […] The cells were continuously cultured in a neural culture medium (Neurobasal/GlutaMaxI/N2). On day 28, the total amount of the medium was exchanged with the same medium free of GDF7, and on day 35, the cells were analyzed by the immunofluorescence method and the quantitative PCR method.

[6] = SDF1 300 ng/ml added on day 28, analysed day 35
[7] = FGF19 100 ng/ml added on day 14, analysed day 35
[8] = FGF2 50 ng/ml day 2 to day 7 vs Fgf2 non-addition, quantitative PCR
[9] = GDF7 100 ng/ml added on day 21, day 35, quantitative PCR
[10] = GDF7 added from day 14 of culturing

SDF1: known chemokine also called CXCL12, secreted ligand for chemokine receptor 4 (CXCR4)
formation of rhombic lip and 3 layer structure of cerebellar plate ([1]; SDF1 100 ng/ml): promoted formation of rhombic lip and formation of a 3 layer structure of cerebellar plate
configuration of the rhombic lip [1, 6]: enables continuous configuration of the rhombic lip
formation of continuous kirrel2 positive neuroepithelial structure [1, 6]: promoted formation of a continuous kirrel2 positive neuroepithelial structure
formation of rhombic lip and 3 layer structure of cerebellar plate ([1]; SDF1 500 ng/ml): promoted formation of rhombic lip and formation of a 3 layer structure of cerebellar plate
formation of rhombic lip and 3 layer structure of cerebellar plate ([1]; SDF1 added from day 21): an effect similar to that when added from day 28 was observed

NS(=O)(=O)c1cccc2c1c([N+](=O)[O-])cc1nc(O)c(O)nc12 [NBQX]
miniature excitatory postsynaptic current [2]: suppression of miniature excitatory postsynaptic current

FGF19: known cytokine, human ortholog of mouse Fgf15; second fibroblast growth factor
effect (frequency) on dorsal-ventral polarity formation relative to that at 100 ng/ml ([3]; FGF19 50 ng/ml): about ⅓
formation of structure having polarity along the dorsal-ventral axis of neural tube ([3]; FGF19 50 ng/ml): promoted formation of a structure having polarity along the dorsal-ventral axis of the neural tube
formation of continuous flat-oval neuroepithelial structure in the cell aggregate [3, 7]: promoted formation of a continuous flat-oval neuroepithelial structure
formation of structure having polarity along the dorsal-ventral axis of neural tube [3, 7]: resulted in the formation of a structure having polarity along the dorsal-ventral axis of neural tube
effect (frequency) on dorsal-ventral polarity formation relative to that at 100 ng/ml ([3]; FGF19 300 ng/ml): of the same level as that at 100 ng/ml
formation of the dorsal-ventral axis pattern ([3]; FGF19 300 ng/ml): similarly promoted formation of the dorsal-ventral axis pattern
formation of a dorsal-ventral axis pattern ([3]; FGF19 added on day 10 of culturing): formation of a dorsal-ventral axis pattern was promoted, though the efficiency was low

Sonic Hedgehog
formation of polarized cerebellar plate ([4]; addition of Sonic Hedgehog to human pluripotent stem cell culturing system): conversely promotes formation of polarized cerebellar plate

NC(=O)c1ccc(-c2nc(-c3ccc4c(c3)OCO4)c(-c3ccccn3)[nH]2)cc1 [SB431542, 4-(5-benzol[1,3]dioxol-5-yl-4-pyridin-2-yl-1H-imidazol-2-yl)-benzamide, reference compound]
induction of differentiation into neural progenitors (Human ES cells (KhES-1); SB431542 3 μM): induction of differentiation into neural progenitors was also observed
differentiation into neural progenitors in the midbrain-hindbrain boundary (Human ES cells (KhES-1); SB431542 10-30 μM): induced differentiation into neural progenitors in the midbrain-hindbrain boundary

C[C@@H](N)[C@H]1CC[C@H](C(=O)Nc2ccncc2)CC1 [Y-27632, (+)-(R)-trans-4-(1-aminoethyl)-N-(4-pyridyl)cyclohexanecarboxamide, reference compound]
aggregate formation of human ES cells (Human ES cells (KhES-1); when Y-27632 was not added): did not form an aggregate

CC1=C2C[C@H]3[C@@H](CC=C4C[C@@H](O)CC[C@@]43C)[C@@H]2CC[C@]12O[C@@H]1C[C@H](C)CN[C@H]1[C@H]2C [cyclopamine, reference compound]
cerebellar plate formation from human pluripotent stem cells ([4]; Hedgehog inhibitor added): did not significantly promote cerebellar plate formation

FGF2: known cytokine also called basic fibroblast growth factor (bFGF); first fibroblast growth factor
differentiation into neural progenitors in the midbrain-hindbrain boundary (Human ES cells (KhES-1); FGF2 20 ng/ml): promoted differentiation into neural progenitors in the midbrain-hindbrain boundary
expression of forebrain markers Six3 and Otx2 (Human ES cells (KhES-1); [8]): suppressed
expression of midbrain-hindbrain boundary markers En2, Gbx2 (Human ES cells (KhES-1); [8]): markedly increased
differentiation into neural progenitors in the midbrain-hindbrain boundary (Human ES cells (KhES-1); FGF2 100 ng/ml): promoted differentiation into neural progenitors in the midbrain-hindbrain boundary
differentiation into neural progenitors in the midbrain-hindbrain boundary (Human ES cells (KhES-1); FGF2 5-10 ng/ml (concentration used for maintenance culturing of ES cells)): did not show promotion of differentiation
differentiation into neural progenitors in the midbrain-hindbrain boundary (Human ES cells (KhES-1); FGF2 added days 2-7): showed the highest effect
differentiation into neural progenitors in the midbrain-hindbrain boundary (Human ES cells (KhES-1); FGF2 added days 2-14): exhibited a promoting effect
differentiation into neural progenitors in the midbrain-hindbrain boundary (Human ES cells (KhES-1); FGF2 added days 3-7): exhibited a promoting effect
differentiation into neural progenitors in the midbrain-hindbrain boundary (Human ES cells (KhES-1); FGF2 added days 4-7): exhibited a promoting effect
differentiation into neural progenitors in the midbrain-hindbrain boundary (Human ES cells (KhES-1); FGF2 added from day 0): remarkable promotion of differentiation into neural progenitors in the midbrain-hindbrain boundary was not observed
differentiation into neural progenitors in the midbrain-hindbrain boundary (Human ES cells (KhES-1); FGF2 added from day 1): remarkable promotion of differentiation into neural progenitors in the midbrain-hindbrain boundary was not observed
expression of Fgf8 and Wntl (isthmic organizer) (Human ES cells (KhES-1); FGF2 addition, days 10 and 14): enhanced
kirrel2 positive cells (FACS, anti-kirrel2 antibody) ([4]; day 35, cells exposed to Fgf2): ~30%

laminin
formation of rhombic lip and 3 layer structure of cerebellar plate ([1]; used in place of SDF1): could not substitute SDF1

B1: BMP4: factor known to promote formation of rhombic lip in mouse (protein, UniProt P12644 293-408, looked up)
Bone morphogenetic protein 4: SPKHHSQRARKKNKNCRRHSLYVDFSDVGWNDWIVAPPGYQAFYCHGDCPFPLADHLNSTNHAIVQTLVNSVNSSIPKACCVPTELSAISMLYLDEYDKVVLKNYQEMVVEGCGCR
formation of the rhombic lip from human pluripotent stem cell ([5]; BMP4 used instead of GDF7): could not be induced

B2: GDF7: known cytokine promoting differentiation into cerebellar granule cell progenitors and formation of rhombic lip (protein, UniProt Q7Z4P5 322-450, looked up)
Growth/differentiation factor …: TALAGTRTAQGSGGGAGRGHGRRGRSRCSRKPLHVDFKELGWDDWIIAPLDYEAYHCEGLCDFPLRSHLEPTNHAIIQTLLNSMAPDAAPASCCVPARLSPISILYIDAANNVVYKQYEDMVVEACGCR
expression of Atoh1 positive cell in neural progenitor tissue ([5]; GDF7 100 ng/ml added on day 21, analysed day 35, immunofluorescence): promoted expression of Atoh1 positive cell
Atoh1 gene level relative to that by the addition of FGF2 (first comparison printed) [5, 9]: about 220 fold
Atoh1 gene level relative to that by the addition of FGF2 (second comparison printed) [5, 9]: 1.5 fold
growth of cell aggregate [5, 10]: growth of cell aggregate was inhibited
induction of Atoh1 positive cell [5, 10]: Atoh1 positive cell was induced
formation of the rhombic lip ([5]; GDF7 not removed from the medium on and after day 28): adverse influence on the formation of the rhombic lip was not found

B3: FGF17: fibroblast growth factor used instead of FGF19 (protein, UniProt O60258 23-216, looked up)
Fibroblast growth factor 17: TQGENHPSPNFNQYVRDQGAMTDQLSRRQIREYQLYSRTSGKHVQVTGRRISATAEDGNKFAKLIVETDTFGSRVRIKGAESEKYICMNKRGKLIGKPSGKSKDCVFTEIVLENNYTAFQNARHEGWFMAFTRQGRPRQASRSRQNQREAHFIKRLYQGQLPFPNHAEKQKQFEFVGSAPTRRTKRTRRPQPLT
formation of a dorsal-ventral axis pattern ([3]; used instead of FGF19): promoted like FGF19, though the effect was weaker than FGF19

B4: FGF8: fibroblast growth factor used instead of FGF19 (protein, UniProt P55075 23-233, looked up)
Fibroblast growth factor 8: QEGPGRGPALGRELASLFRAGREPQGVSQQHVREQSLVTDQLSRRLIRTYQLYSRTSGKHVQVLANKRINAMAEDGDPFAKLIVETDTFGSRVRVRGAETGLYICMNKKGKLIAKSNGKGKDCVFTEIVLENNYTALQNAKYEGWYMAFTRKGRPRKGSKTRQHQREVHFMKRLPRGHHTTEQSLRFEFLNYPPFTRSLRGSQRTWAPEPR
formation of a dorsal-ventral axis pattern ([3]; used instead of FGF19): promoted like FGF19, though the effect was weaker than FGF19
